pIC50: −log10 of the molar value. ≈ marks a conversion by molar mass, not a printed value.
What was measured:
[1] = molecular target: T1, Enoyl-[acyl-carrier-protein] reductase [NADPH] FabI (Staphylococcus aureus) (UniProt Q6GI75); assay: Inhibition of N-terminal his 6 tagged Staphylococcus aureus Fabi (1 to […] residues) expressed in Escherichia coli BL21 at 10 uM incubated for 30 mins in presence of NADPH by fluorescence based microplate reader analysis relative to control
T1 sequence (whole entry): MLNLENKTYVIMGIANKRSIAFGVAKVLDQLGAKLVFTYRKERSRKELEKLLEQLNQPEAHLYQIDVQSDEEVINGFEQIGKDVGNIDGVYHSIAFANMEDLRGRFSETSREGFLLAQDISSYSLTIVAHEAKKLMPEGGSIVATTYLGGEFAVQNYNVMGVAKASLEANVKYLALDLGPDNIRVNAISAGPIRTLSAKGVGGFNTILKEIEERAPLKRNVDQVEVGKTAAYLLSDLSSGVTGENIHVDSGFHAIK

[2] = molecular target: T1, Enoyl-[acyl-carrier-protein] reductase [NADPH] FabI (Staphylococcus aureus); assay: Inhibition of N-terminal his 6 tagged Staphylococcus aureus Fabi (1 to […] residues) expressed in Escherichia coli BL21 at 1 uM incubated for 30 mins in presence of NADPH by fluorescence based microplate reader analysis relative to control
[3] = molecular target: T2, Enoyl-[acyl-carrier-protein] reductase [NADPH] FabI (Staphylococcus aureus, UniProt Q6GI75); assay: Inhibition of N-terminal his 6 tagged Staphylococcus aureus Fabi (1 to […] residues) expressed in Escherichia coli BL21 incubated for 30 mins in presence of NADPH by fluorescence based microplate reader analysis
T2 sequence (Q6GI75 whole entry): T1 sequence (whole entry)

Staphylococcus aureus [4] = assay: Antimicrobial activity against […] Staphylococcus aureus ATCC33591 measured after 24 hrs by CLSI protocol based microdilution method; assay type: functional
Staphylococcus aureus [5] = assay: Antimicrobial activity against […] Staphylococcus aureus ATCC43300 measured after 24 hrs by CLSI protocol based microdilution method; assay type: functional
Staphylococcus aureus [6] = assay: Antimicrobial activity against […] Staphylococcus aureus USA300 measured after 24 hrs by CLSI protocol based microdilution method; assay type: functional
Staphylococcus aureus [7] = assay: Antimicrobial activity against […] Staphylococcus aureus NRS271 measured after 24 hrs by CLSI protocol based microdilution method; assay type: functional
Staphylococcus aureus [8] = assay: Antimicrobial activity against methicillin-susceptible Staphylococcus aureus ATCC29213 measured after 24 hrs by CLSI protocol based microdilution method; assay type: functional
Staphylococcus aureus [9] = assay: Antimicrobial activity against methicillin-susceptible Staphylococcus aureus ATCC25923 measured after 24 hrs by CLSI protocol based microdilution method; assay type: functional
Enterococcus faecium = assay: Antimicrobial activity against Enterococcus faecium ATCC19434 measured after 24 hrs by CLSI protocol based microdilution method; assay type: functional
Enterococcus faecalis = assay: Antimicrobial activity against Enterococcus faecalis ATCC29212 measured after 24 hrs by CLSI protocol based microdilution method; assay type: functional
Pseudomonas aeruginosa = assay: Antimicrobial activity against Pseudomonas aeruginosa PAO1 measured after 24 hrs by CLSI protocol based microdilution method; assay type: functional
Escherichia coli = assay: Antimicrobial activity against Escherichia coli ATCC25922 measured after 24 hrs by CLSI protocol based microdilution method; assay type: functional
Acinetobacter baumannii = assay: Antimicrobial activity against Acinetobacter baumannii ATCC19606 measured after 24 hrs by CLSI protocol based microdilution method; assay type: functional
Candida albicans = assay: Antimicrobial activity against Candida albicans SC5314 measured after 48 hrs by CLSI protocol based microdilution method; assay type: functional

| SMILES | inhibition [1] [%] | inhibition [2] [%] | pIC50 [3] | MIC (Staphylococcus aureus [4]) [µg/mL] | MIC (Staphylococcus aureus [5]) [µg/mL] | MIC (Staphylococcus aureus [6]) [µg/mL] | MIC (Staphylococcus aureus [7]) [µg/mL] | MIC (Staphylococcus aureus [8]) [µg/mL] | MIC (Staphylococcus aureus [9]) [µg/mL] | MIC (Enterococcus faecium) [µg/mL] | MIC (Enterococcus faecalis) [µg/mL] | MIC (Pseudomonas aeruginosa) [µg/mL] | MIC (Escherichia coli) [µg/mL] | MIC (Acinetobacter baumannii) [µg/mL] | MIC (Candida albicans) [µg/mL] |
| --- | --- | --- | --- | --- | --- | --- | --- | --- | --- | --- | --- | --- | --- | --- | --- |
| Cn1c(C2CC(=O)N(c3cccc(F)c3Br)C2)nc2ccccc21 (stereo not given) | 83 | 23.5 | 5.56 | 16 (≈ 41.2 µM) | > 32 | 32 (≈ 82.4 µM) | > 32 | 32 (≈ 82.4 µM) | > 32 | > 32 | > 32 | > 32 | > 32 | > 32 | > 32 |
| Cc1cccc(N2CC(c3nc4ccccc4n3C)CC2=O)c1Br (stereo not given) | 92.6 | 30.1 | 5.77 | 16 (≈ 41.6 µM) | 32 (≈ 83.3 µM) | 16 (≈ 41.6 µM) | 32 (≈ 83.3 µM) | 16 (≈ 41.6 µM) | 8 (≈ 20.8 µM) | > 32 | > 32 | > 32 | > 32 | > 32 | > 32 |
| Cn1c(C2CC(=O)N(c3cccc4ccccc34)C2)nc2ccccc21 (stereo not given) | 96.9 | 48.4 | 5.97 | 8 (≈ 23.4 µM) | 16 (≈ 46.9 µM) | 8 (≈ 23.4 µM) | 16 (≈ 46.9 µM) | 8 (≈ 23.4 µM) | 8 (≈ 23.4 µM) | > 32 | > 32 | > 32 | > 32 | > 32 | > 32 |
| Cc1c(Br)cccc1N1CC(c2nc3cc(F)c(F)cc3n2C)CC1=O (stereo not given) | 66.7 | 3.2 | 5.28 | > 32 | > 32 | > 32 | > 32 | 32 (≈ 76.1 µM) | > 32 | > 32 | > 32 | > 32 | > 32 | > 32 | > 32 |
| Cc1c(N2CC(c3nc4ccccc4n3C)CC2=O)cccc1C(F)(F)F (stereo not given) | 93.9 | 66.1 | 6.20 | 4 (≈ 10.7 µM) | 4 (≈ 10.7 µM) | 8 (≈ 21.4 µM) | 8 (≈ 21.4 µM) | 4 (≈ 10.7 µM) | 8 (≈ 21.4 µM) | > 32 | > 32 | > 32 | > 32 | > 32 | > 32 |
| Cn1c(C2CC(=O)N(c3cccc(Cl)c3F)C2)nc2ccccc21 (stereo not given) | 97.9 | 65.4 | 6.24 | 4 (≈ 11.6 µM) | 4 (≈ 11.6 µM) | 8 (≈ 23.3 µM) | 8 (≈ 23.3 µM) | 4 (≈ 11.6 µM) | 4 (≈ 11.6 µM) | > 32 | > 32 | > 32 | > 32 | > 32 | > 32 |
| COc1ccc(N2CC(c3nc4ccccc4n3C)CC2=O)cc1Br (stereo not given) | 72.3 | 9.4 | 5.52 | > 32 | > 32 | > 32 | > 32 | > 32 | > 32 | > 32 | > 32 | > 32 | > 32 | > 32 | > 32 |
| Cn1c(C2CC(=O)N(c3cccc(F)c3F)C2)nc2ccccc21 (stereo not given) | 91.8 | 35.3 | 6.64 | 16 (≈ 48.9 µM) | 32 (≈ 97.8 µM) | 16 (≈ 48.9 µM) | 32 (≈ 97.8 µM) | 16 (≈ 48.9 µM) | 32 (≈ 97.8 µM) | > 32 | > 32 | > 32 | > 32 | > 32 | > 32 |
| Cn1ccc2c(N3CC(c4nc5ccccc5n4C)CC3=O)cccc21 (stereo not given) | 62.1 | 9.8 | 5.08 | > 32 | > 32 | > 32 | > 32 | > 32 | > 32 | > 32 | > 32 | > 32 | > 32 | > 32 | > 32 |
| Cc1c(N2CC(c3nc4ccccc4n3C)CC2=O)cccc1[N+](=O)[O-] (stereo not given) | 98 | 42.8 | 5.82 | 16 (≈ 45.7 µM) | 16 (≈ 45.7 µM) | 16 (≈ 45.7 µM) | 32 (≈ 91.3 µM) | 8 (≈ 22.8 µM) | 16 (≈ 45.7 µM) | > 32 | > 32 | > 32 | > 32 | > 32 | > 32 |

— ChEMBL document CHEMBL5500393, “Discovery and Optimization of Novel SaFabI Inhibitors as Specific Therapeutic Agents for MRSA Infection” (J Med Chem, 2024)
